# Source: patent US8822182B2, “Chimeric antigen-specific T cell-activating polypeptides” (Mayo Foundation for Medical Education and Research, priority 2001, dated 2014)
# Like-named read-outs stand apart in the source and are kept apart here.
# Experiments:
# [1] = system: TAP deficient RMA-S targets; assay type: cell-based, mouse; conditions: ConA-activated CTL, 10 μM overnight; for sensitization of targets for killing by OVA257-specific CTL: FIG. 9 left panel; for sensitization of targets for killing by 2C-specific CTL: FIG. 9 middle panel
# [2] = system: TAP-deficient RMA-S target cells; assay type: cell-based, mouse; conditions: peptide epitope-activated CTL; for sensitization of targets for lysis by LCMV-specific CTL: FIG. 10C (right panel)
# [3] = system: TAP-deficient T2 target cells; assay type: cell-based, human
# [4] = system: TAP-expressing 221.A2 target cells; assay: 51Cr release cytotoxicity assay, human CEA-specific CTL line, 221.A2 targets; assay type: cell-based; conditions: TAP-competent targets, incubated overnight with peptide, FIG. 1A
# [5] = system: TAP-deficient T2 target cells; assay: 51Cr release cytotoxicity assay, human CEA-specific CTL line, T2 targets; assay type: cell-based; conditions: for effect of brefeldin-A (BFA) on sensitization of T2 cells: BFA 1 μg/ml, CEA-specific CTL, E:T 20:1, FIG. 4; for ability to sensitize target cells for CTL lysis: TAP-deficient targets, incubated overnight with peptide, FIG. 1B; for sensitizing activity after pre-incubation with trypsin: trypsin at 37° C., E:T 20:1, FIG. 2B; for capacity to sensitize targets for CTL lysis: 10 μM overnight, E:T 20:1, FIG. 2C
# [6] = system: TAP-competent cells expressing H-2K^b (L-K^b); assay: Immunofluorescence and confocal microscopy of H-2K^b/OVA257 complexes, TAP-competent cells; assay type: cell-based, mouse
# Description: (§1) T2/K^b or L-K^b cells were cultured overnight on poly-lysine treated glass coverslips. The culture medium was discarded, and the cells were gently washed with PBS. The cells were pre-incubated with serum-free AIM-V medium at 37° C. for 30 minutes and then incubated with peptide/TA solutions at the indicated concentrations for 12 hour at 37° C. After peptide loading, the cells were washed and fixed with 2% formaldehyde for 20 minutes at room temperature. For indirect immunofluorescence, fixed cell monolayers were permeabilized with 0.2% Triton X100 in PBS and incubated with PBS containing 5% goat serum to block non-specific protein binding sites. The cells were double-labeled with mouse monoclonal antibody 25D1.16 specific to OVA257/H-2K^b complex and rabbit polyclonal antibody TGN38 (TGN marker) or rabbit anti-calreticulin (ER marker), followed by 1 hour staining with FITC anti-mIgG and TR anti-rIgG as secondary antibodies. After washing, the coverslips were mounted for observation on glass slides using the Prolong Antifade Kit. The stained cells were examined and photographed with a Leica TCS-SL confocal laser-scanning microscope (Bensheim, Germany).
# Utilizing the monoclonal antibody 25D1.16 that specifically reacts with H-2K^b/OVA257 complexes and confocal microscopy, the formation and presence of this CTL epitope in permeabilized TAP-competent and TAP-deficient cells expressing H-2K^b was evaluated. […] These cells were also stained with an antibody specific for calreticulin which is localized within the ER.
# TAP-competent EL-4 cells = assay: Flow cytometry of surface H-2K^b/OVA257 complexes (25D1.16) with protease inhibitors, EL-4 cells; assay type: cell-based, mouse; conditions: antigen 10 μM overnight; for effect of furin inhibitor decRVKR-CMK on expression of surface H-2K^b/OVA257 complexes (decrease): decRVKR-CMK 60 μM, FIGS. 8A-8C; for effect of lactacystin on amount of surface H-2K^b/OVA257 complexes: lactacystin 10 μM, FIGS. 6A and 6B; for effect of pepstatin-A on amounts of surface peptide/MHC class I complexes (increase): pepstatin 100 μM, FIGS. 7A and 7B
# Description: (§2) The effects of protease inhibitors on antigen processing and presentation were evaluated by analysis of 25D1.16 staining on different antigen-pulsed EL-4 or T2/K^b cells using flow cytometric analysis. In brief, EL-4 or T2/K^b cells were washed twice with serum-free AIM-V medium (Life Technologies, Rockville, Md.), pre-treated with protease inhibitors (10 μM lactacycstin, 100 μM pepstatin or 60 μM decRVKR-CMK) for 30 minutes and then pulsed with equimolar concentrations of different (as indicated) peptides at 37° C. overnight with the continuous presence of the corresponding protease inhibitors. The serum-free AIM-V medium was used in order to exclude the potential involvement of serum proteases during the peptide-pulsing process. After washing the cells twice with FACS buffer (PBS (phosphate buffered saline) supplemented with 2% FBS and 0.2% sodium azide), peptide-loaded APC were stained with 25D1.16 antibody followed by FITC anti-mIgG for flow analysis. Untreated EL-4 and T2/K^b cells were pulsed with peptides and stained as controls.
# [7] = system: TAP-deficient T2/K^b cells; assay: Flow cytometry of surface H-2K^b/OVA257 complexes (25D1.16) with protease inhibitors, T2/K^b cells; assay type: cell-based, human; conditions: antigen 10 μM overnight; for effect of furin inhibitor decRVKR-CMK on expression of surface H-2K^b/OVA257 complexes (decrease): decRVKR-CMK 60 μM, FIGS. 8D-8F; for effect of lactacystin on level of surface H-2K^b/OVA257 complexes (increase): lactacystin 10 μM, FIGS. 6C and 6D; for effect of pepstatin-A on amounts of surface peptide/MHC class I complexes (increase): pepstatin 100 μM, FIGS. 7C and 7D
# Description: as §2
# The data described above indicate that TA can be processed in various cellular compartments to produce small peptide epitopes that subsequently associate with MHC class I molecules and the resulting peptide-MHC class I complexes are then transported to the cell surface. Antigen processing could take place: (1) in the cytoplasm, via proteasomal degradation followed by TAP transport; (2) within the ER, where peptide trimming via an aminopeptidase could occur; (3) in the trans-Golgi, where processing of antigens through proteases such as furin can occur; and/or (4) in early endocytic compartments, where peptides that could either bind to recycling MHC class I molecules or leak into other compartments of the MHC class I pathway can be generated. Utilizing antibody 25D1.16, we studied the effects of various inhibitors of antigen processing in the formation of H-2K^b/OVA257 surface complexes by peptides OVA257-HIVtat and HIVtat-OVA257.
# [8] = system: Murine dendritic cells (DC); assay: Persistence in dendritic cells: IFN-γ ELISA of OT-1 CTL cultured with pulsed DC; assay type: cell-based, mouse; conditions: DC pulsed 10 μM 2 hours, washed, further 48 hours, CTL:DC 10:1 for 24 hours, FIG. 14
# Description: Murine dendritic cells (DC) were prepared by culturing C57BL6 mouse (H-2^b) bone marrow […] in the presence of granulocyte macrophage colony stimulating factor (GM-CSF) and interleukin-4 (IL-4) by a method essentially the same as that described by Son et al. [(2002) J. Immunol. Meth. 262:145-157] except that non-adherent cells are removed from the cultures and discarded on day 2 of culture and no density gradient centrifugation step was used. Cells not adhering to the plastic tissue culture vessel at day 6 of culture were harvested and used as DC.
# DC were pulsed with either the TA HIVtat-OVA257 (see Table 2) or the peptide epitope OVA257, each at a concentration of 10 μM, for 2 hours at 37° C. The cells were then washed free of the TA or peptide epitope and incubated for a further 48 hours. They were then cultured with cells of the OT-1 CTL clone (specific for H-2K^b/OVA257) at a CTL to DC ratio of 10:1 for 24 hours. Supernatants were then removed from the cultures and the relative amounts of IFN-γ in various dilutions of each supernatant were measured by ELISA (FIG. 14). […] These findings indicate that a peptide epitope persists in DC for a longer period of time when taken up by DC in the form of a TA than when taken up by DC in the form of the peptide epitope per se.
# C57BL/6 mice = assay type: in vivo, mouse; conditions: 50 μg in IFA; spleen and lymph node cells cultured with IL-2 for 7 days, FIG. 12
# [9] = system: TAP-deficient cells (T2/K^b); assay: Immunofluorescence and confocal microscopy of H-2K^b/OVA257 complexes, T2/K^b cells; assay type: cell-based, human
# Description: as §1
# An antibody specific for trans-Golgi network (TGN38) was used to test whether H-2K^b/OVA257 complexes could also be detected in the trans-Golgi network of cells incubated with TA peptides. […] In these cells, antibody TGN38 stained brightly a structure corresponding to the trans-Golgi. […] These observations reinforce the findings that TA peptides need to penetrate cells in order to create MHC class I/peptide complexes. In addition, these complexes are observed in both the ER and trans-Golgi, even in TAP-deficient cells.
sequence,measurement,setting,value
"IKAVYNFATCG [LCMV, reference compound]",sensitization of targets for lysis by LCMV-specific CTL,[1]; FIG. 9 right panel,only the short minimal epitope was effective
same,sensitization of targets for lysis by LCMV-specific CTL,[2],relatively high amount of the peptide epitope required to sensitize
IKAVYNFATCGVRVVSIYRYYGLVRVVSIINFEKLAAARKKRRQRRR [TA3-C],sensitization of targets for killing by OVA257-specific CTL,[1],much less effective
same,sensitization of targets for killing by 2C-specific CTL,[1],much less effective
same,effectiveness in sensitizing RMA-S targets relative to TA3-A (less effective),"[2]; E:T 10:1, FIG. 10",at least 100 fold
same,"sensitization of targets for lysis by CTL specific for all three peptide epitopes (OVA257, 2C, LCMV)","[2]; E:T 10:1, FIG. 10",also sensitized the RMA-S targets for lysis
"IMDQVPSFV [gp100209, reference compound]",effect of brefeldin-A (BFA) on sensitization of T2 cells,[3],did not block
"IMIGVLVGV (epitope) [CEA691, reference compound]",ability to sensitize target cells for CTL lysis,[4],"similar, if not identical, activities"
same,effect of brefeldin-A (BFA) on sensitization of T2 cells,[5],did not block
same,ability to sensitize target cells for CTL lysis,[5],"similar, if not identical, activities"
same,effect of competitor peptide HBc18-27 on sensitization of target cells for CTL lysis,"[5]; antigen 1 μM, 30 minutes, E:T 20:1, FIG. 2A",efficient at inhibiting the sensitization of target cells for CTL lysis by peptide CEA691
same,sensitizing activity after pre-incubation with trypsin,[5]; antigen 1 μM,did not modify this peptide's sensitizing activity
IMIGVLVGVAAARKKRRQRRR [CEA691-HIVtat],ability to sensitize target cells for CTL lysis,[4],"similar, if not identical, activities"
same,ability to sensitize target cells for CTL lysis,[5],"similar, if not identical, activities"
same,sensitizing activity after pre-incubation with trypsin,[5]; antigen 1 μM,lost most of its activity
IMIGVLVGVKKK [CEA691-KKK],capacity to sensitize targets for CTL lysis,[5],"none of peptides CEA691-KKK, CEA691-RRR or CEA691-RKK were able to sensitize"
IMIGVLVGVRKK [CEA691-RKK],capacity to sensitize targets for CTL lysis,[5],"none of peptides CEA691-KKK, CEA691-RRR or CEA691-RKK were able to sensitize"
IMIGVLVGVRRR [CEA691-RRR],capacity to sensitize targets for CTL lysis,[5],"none of peptides CEA691-KKK, CEA691-RRR or CEA691-RKK were able to sensitize"
RKKRRQRRRAAAIMIGVLVGV [HIVtat-CEA691],effect of brefeldin-A (BFA) on sensitization of T2 cells,[5],effective in blocking
RKKRRQRRRAAASIINFEKL [HIVtat-OVA257],presence of H-2K^b/OVA257 complexes in permeabilized cells,[6]; 25D1.16 staining,abundant
same,H-2K^b/OVA257 complexes within the ER,[6]; 25D1.16 superimposed with calreticulin staining,abundant H-2K^b/OVA257 complexes were present within the ER
same,effect of furin inhibitor decRVKR-CMK on expression of surface H-2K^b/OVA257 complexes (decrease),TAP-competent EL-4 cells,no effect was observed
same,effect of lactacystin on amount of surface H-2K^b/OVA257 complexes,TAP-competent EL-4 cells,did not have an effect
same,effect of pepstatin-A on amounts of surface peptide/MHC class I complexes (increase),TAP-competent EL-4 cells,did not have an appreciable effect
same,effect of furin inhibitor decRVKR-CMK on expression of surface H-2K^b/OVA257 complexes (decrease),[7],no effect was observed
same,effect of lactacystin on level of surface H-2K^b/OVA257 complexes (increase),[7],did not have an appreciable effect
same,effect of pepstatin-A on amounts of surface peptide/MHC class I complexes (increase),[7],did not have an appreciable effect
same,IFN-γ produced by OT-1 CTL cultured with pulsed DC,[8],a high level of IFN-γ was produced
RKKRRQRRRAAASVYDEFFVWLKVKRLPYLGWLVFKVKRSGPSNTPPEI [TA5],"peptide epitope-specific cytotoxic activity of effector cells from immunized mice (E1A, P1A, TRP-2 pulsed versus unpulsed RMA-S targets)",C57BL/6 mice,significant peptide epitope-specific cytotoxic activity was detected
RKKRRQRRRAAASVYDEFFVWLVRVVLPYLGWLVFVRVVSGPSNTPPEI [TAG],"peptide epitope-specific cytotoxic activity of effector cells from immunized mice (E1A, P1A, TRP-2 pulsed versus unpulsed RMA-S targets)",C57BL/6 mice,no significant cytotoxic activity
RKKRRQRRRIKAVYNFATCGRVKRSIINFEKLRVKRSIYRYYGL [TA3-D],sensitization of targets for lysis by LCMV-specific CTL,[2],less effective
same,sensitization of targets for lysis by OVA257-specific CTL,[2]; FIG. 10 left panel,as effective as the others
same,sensitization of targets for lysis by 2C-specific CTL,[2]; FIG. 10 middle panel,as effective as the others
SIINFEKLAAARKKRRQRRR [OVA257-HIVtat],amount of intracellular H-2K^b/OVA257 complexes,[9]; 25D1.16 staining,High amounts of intracellular H-2K^b/OVA257 complexes
same,localization of H-2K^b/OVA257 complexes to the trans-Golgi,[9]; 25D1.16 superimposed with TGN38 staining,majority of the H-2K^b/OVA257 complexes localized within the trans-Golgi
same,effect of furin inhibitor decRVKR-CMK on expression of surface H-2K^b/OVA257 complexes (decrease),TAP-competent EL-4 cells,about 10 fold
same,effect of lactacystin on amount of surface H-2K^b/OVA257 complexes,TAP-competent EL-4 cells,did not have an effect
same,effect of pepstatin-A on amounts of surface peptide/MHC class I complexes (increase),TAP-competent EL-4 cells,3-5 fold
same,effect of furin inhibitor decRVKR-CMK on expression of surface H-2K^b/OVA257 complexes (decrease),[7],about 10 fold
same,effect of lactacystin on level of surface H-2K^b/OVA257 complexes (increase),[7],about 3 fold
same,effect of pepstatin-A on amounts of surface peptide/MHC class I complexes (increase),[7],3-5 fold
SIINFEKLRVKRIKAVYNFATCGRVKRSIYRYYGLAAARKKRRQRRR [TA3-B],sensitization of targets for killing by OVA257-specific CTL,[1],could effectively kill targets sensitized
same,sensitization of targets for killing by 2C-specific CTL,[1],could effectively kill targets sensitized
